According to patent publication US9795602B2, “Polycyclic-carbamoylpyridone compounds and their pharmaceutical use” (Gilead Sciences, Inc., priority 2014, dated 2017):
Where two headings read alike, the source gives them in different places.

Key:
Format in all cases: cell-based
[1] = Cytotoxicity (CC50) in MT4 cells, mock-infected; conditions: human
Experimental: Infected and uninfected cells are diluted in cell growth medium and 35 μL of 2000 (for MT4) cells is added to each well of the assay plates. Assay plates were then incubated in a 37° C. incubator. After 5 days of incubation, 25 μL of 2× concentrated CellTiter-Glo™ Reagent (catalog # G7573, Promega Biosciences, Inc., Madison, Wis.) was added to each well of the assay plate. Cell lysis was carried out by incubating at room temperature for 2-3 minutes, and then chemiluminescence was read using the Envision reader (PerkinElmer).

PXR (NR1I2) = PXR (NR1I2) (Homo sapiens (Human), UniProt O75469); experiment: Human PXR activation assay (luciferase reporter, DPX2 cells); conditions: human
Chain of PXR (NR1I2) (O75469 whole entry): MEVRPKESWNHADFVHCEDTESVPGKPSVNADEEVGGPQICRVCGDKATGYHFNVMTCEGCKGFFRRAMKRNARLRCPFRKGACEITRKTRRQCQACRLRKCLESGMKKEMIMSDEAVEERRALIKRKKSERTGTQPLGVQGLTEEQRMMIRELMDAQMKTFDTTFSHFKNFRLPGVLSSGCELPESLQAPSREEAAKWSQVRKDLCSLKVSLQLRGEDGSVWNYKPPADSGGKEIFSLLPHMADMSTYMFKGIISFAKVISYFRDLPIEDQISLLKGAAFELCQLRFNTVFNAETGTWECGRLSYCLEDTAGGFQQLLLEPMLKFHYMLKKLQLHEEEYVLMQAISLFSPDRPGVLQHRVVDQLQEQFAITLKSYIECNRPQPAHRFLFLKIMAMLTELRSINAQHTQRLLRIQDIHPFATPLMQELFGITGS
Experimental: Luciferase Reporter Gene Assay.
A stably transformed tumor cell line (DPX2) was plated on 96-well microtiter plates. […]. The number of viable cells was determined and the reporter gene activity was assessed. […]

HIV-IIIb = experiment: Antiviral assay in MT4 cells; conditions: MT4 cells, HIV-IIIb, 5 days, read-out: EC50
Experimental: 1 mL aliquots of 2×10^6 MT4 cells are pre-infected for 1 and 3 hours respectively at 37° C. with 25 μL (MT4) or of either cell growth medium (mock-infected) or a fresh 1:250 dilution of an HIV-IIIb concentrated ABI stock (0.004 m.o.i. for MT4 cells). Infected and uninfected cells are diluted in cell growth medium and 35 μL of 2000 (for MT4) cells is added to each well of the assay plates.
Assay plates were then incubated in a 37° C. incubator. After 5 days of incubation, 25 μL of 2× concentrated CellTiter-Glo™ Reagent (catalog # G7573, Promega Biosciences, Inc., Madison, Wis.) was added to each well of the assay plate. Cell lysis was carried out by incubating at room temperature for 2-3 minutes, and then chemiluminescence was read using the Envision reader (PerkinElmer).

[2] = 15 uM, DPX2 cells, % Emax relative to rifampicin, adjusted for DMSO background, read-out: PXR % inh at 15 uM (adjusted)
[3] = Human immunodeficiency virus 1, IIIB, MT4, 120 h

Row | SMILES | CC50 at 5 days ([1]; mock-infected (uninfected)) [µM] | inhibition at 24 h, 15 µM (PXR (NR1I2); [2]) [%] | EC50 (HIV-IIIb; [3]) [µM] | CC50 at 5 days ([1]; mock-infected) [µM] | inhibition at 24 h, 15 µM (PXR (NR1I2)) [%] | EC50 (HIV-IIIb; Human immunodeficiency virus 1, 120 h) [µM]
1 | O=C(NCc1c(F)cc(F)cc1F)c1cn2c(c(O)c1=O)C(=O)N[C@@H]1CCCC[C@@H]12 [Compound 60] | 13.8 | 2 | 0.0019 | – | – | –
2 | CCN1C(=O)c2c(O)c(=O)c(C(=O)NCc3c(F)cc(F)cc3F)cn2[C@@H]2CCCC[C@@H]21 [Compound 5] | 17 | 66 | 0.00474 | – | – | –
3 | CN1C(=O)c2c(O)c(=O)c(C(=O)NCc3ccc(F)c(Cl)c3F)cn2[C@H]2C[C@@H]3C[C@@H]3[C@H]21 [Compound 52, (6aR,6bS,7aS,8aS)-N-(3-chloro-2,4-difluorobenzyl)-4-hydroxy-6-methyl-3,5-dioxo-5,6,6a,6b,7,7a,8,8a-octahydro-3H-cyclopropa[4,5]cyclopenta[1,2-e]pyrido[1,2-a]pyrazine-2-carboxamide] | – | 24 | 0.00495 | 2.83 | – | –
4 | O=C(NCc1c(F)cc(F)cc1F)c1cn2c(c(O)c1=O)C(=O)N[C@@H]1CCCC[C@H]12 [Compound 62] | 24.2 | – | 0.0073 | – | 0 | –
5 | O=C(NCc1c(F)cc(F)cc1F)c1cn2c(c(O)c1=O)C(=O)N(CC(F)(F)F)[C@@H]1COCC[C@H]12 [Compound 35] | 16.5 | 6 | 0.0038 | – | – | –
6 | O=C(NCc1c(F)cc(F)cc1F)c1cn2c(c(O)c1=O)C(=O)N(C1CC1)[C@H]1OCC[C@H]12 (racemic) [Compound 21] | – | 6 | 0.00345 | 31.1 | – | –
7 | O=C(NCc1c(F)cc(F)cc1F)c1cn2c(c(O)c1=O)C(=O)N[C@H]1CCC[C@H]12 [Compound 28] | 10.8 | 4 | 0.0044 | – | – | –
8 | CN1C(=O)c2c(O)c(=O)c(C(=O)NCc3c(F)cc(F)cc3F)cn2[C@H]2COCC[C@]21C [Compound 14] | 11.6 | 26 | 0.00289 | – | – | –
9 | CCN1C(=O)c2c(O)c(=O)c(C(=O)NCc3c(F)cc(F)cc3F)cn2[C@H]2CCO[C@H]21 [Compound 26b] | 30.9 | 24 | 0.00493 | – | – | –
10 | CCN1C(=O)c2c(O)c(=O)c(C(=O)NCc3cc(Cl)c(F)cc3F)cn2[C@H]2CCOC[C@H]21 [Compound 15] | 14.9 | 6 | 0.00792 | – | – | –
11 | CN1C(=O)c2c(O)c(=O)c(C(=O)NCc3c(F)cc(F)cc3F)cn2[C@H]2CCCC[C@@H]21 [Compound 2] | 11.2 | – | 0.0039 | – | 46 | –
12 | CCCN1C(=O)c2c(O)c(=O)c(C(=O)NCc3c(F)cc(F)cc3F)cn2[C@H]2CCOC[C@H]21 [Compound 37] | 33.9 | 35 | 0.00427 | – | – | –
13 | CCN1C(=O)c2c(O)c(=O)c(C(=O)NCc3c(F)cc(F)cc3F)cn2[C@H]2CCC(=O)C[C@H]21 [Compound 40a] | 29 | – | 0.00128 | – | 4 | –
14 | CN1C(=O)c2c(O)c(=O)c(C(=O)NCc3c(F)cc(F)cc3F)cn2[C@@H]2COC[C@H]21 [Compound 46] | 28.2 | 8 | 0.00293 | – | – | –
15 | CCN1C(=O)c2c(O)c(=O)c(C(=O)NCc3c(F)cc(F)cc3F)cn2[C@@H]2CCO[C@@H]21 [Compound 26a] | 24.3 | 15 | 0.00527 | – | – | –
16 | CN1C(=O)c2c(O)c(=O)c(C(=O)NCc3ccc(F)c(Cl)c3F)cn2[C@H]2CCOC[C@H]21 [Compound 49] | 12 | 1 | 0.00332 | – | – | –

Row | SMILES | CC50 at 5 days ([1]; mock-infected (uninfected)) [µM] | inhibition at 24 h, 15 µM (PXR (NR1I2); [2]) [%] | EC50 (HIV-IIIb; [3]) [µM] | CC50 at 5 days ([1]; mock-infected) [µM] | inhibition at 24 h, 15 µM (PXR (NR1I2)) [%] | EC50 (HIV-IIIb; Human immunodeficiency virus 1, 120 h) [µM]
17 | CCN1C(=O)c2c(O)c(=O)c(C(=O)NCc3c(F)cc(F)cc3F)cn2[C@H]2COCC[C@H]21 [Compound 56, (4aR,11aR)-5-ethyl-7-hydroxy-6,8-dioxo-N-(2,4,6-trifluorobenzyl)-1,3,4,4a,5,6,8,11a-octahydropyrano[4,3-e]pyrido[1,2-a]pyrazine-9-carboxamide] | – | 10 | 0.00307 | 4.49 | – | –
18 | CCN1C(=O)c2c(O)c(=O)c(C(=O)NCc3ccc(F)c(C)c3F)cn2[C@H]2CCOC[C@H]21 [Compound 47] | 27.2 | 9 | 0.0057 | – | – | –
19 | CN1C(=O)c2c(O)c(=O)c(C(=O)NCc3ccc(F)c(Cl)c3F)cn2[C@@H]2CCOC[C@H]21 [Compound 11] | 8.32 | 4 | 0.00369 | – | – | –
20 | CN1C(=O)c2c(O)c(=O)c(C(=O)NCc3c(F)cc(F)cc3F)cn2[C@H]2CCCC[C@H]21 [Compound 59] | – | 44 | 0.00342 | 11.4 | – | –
21 | CCN1C(=O)c2c(O)c(=O)c(C(=O)NCc3c(F)cc(F)cc3F)cn2[C@@H]2COC[C@@H]21 [Compound 45] | 36.7 | 33 | 0.00726 | – | – | –
22 | CN1C(=O)c2c(O)c(=O)c(C(=O)NCc3c(F)cc(F)cc3F)cn2[C@@H]2CCO[C@@H]21 [Compound 23] | 18 | 8 | 0.00377 | – | – | –
23 | O=C(NCc1c(F)cc(F)cc1F)c1cn2c(c(O)c1=O)C(=O)N(CC(F)F)[C@@H]1COCC[C@@H]12 [Compound 34] | 32.3 | 3 | 0.00223 | – | – | –
24 | CCN1C(=O)c2c(O)c(=O)c(C(=O)NCc3c(F)cc(F)cc3F)cn2[C@H]2CCC3(C[C@H]21)OCCO3 [Compound 40b] | 23.1 | – | 0.00131 | – | 22 | –
25 | CN1C(=O)c2c(O)c(=O)c(C(=O)NCc3c(F)cc(F)cc3F)cn2[C@@H]2COC[C@@H]21 [Compound 43] | 11.3 | 13 | 0.00288 | – | – | –
26 | CCN1C(=O)c2c(O)c(=O)c(C(=O)NCc3cc(F)c(F)cc3F)cn2[C@H]2CCOC[C@H]21 [Compound 17] | 23.9 | 7 | 0.00481 | – | – | –
27 | C[C@@H]1OCC[C@H]2[C@@H]1N(C)C(=O)c1c(O)c(=O)c(C(=O)NCc3c(F)cc(F)cc3F)cn12 [Compound 54, (4S,4aS,11aS)-7-hydroxy-4,5-dimethyl-6,8-dioxo-N-(2,4,6-trifluorobenzyl)-1,2,4,4a,5,6,8,11a-octahydropyrano[3,4-e]pyrido[1,2-a]pyrazine-9-carboxamide] | – | 8 | 0.00292 | 23.9 | – | –
28 | CCN1C(=O)c2c(O)c(=O)c(C(=O)NCc3ccc(F)c(F)c3F)cn2[C@H]2CCOC[C@H]21 [Compound 19] | 27.8 | 11 | 0.00428 | – | – | –
29 | CN1C(=O)c2c(O)c(=O)c(C(=O)NCc3c(F)cc(F)cc3F)cn2[C@H]2C[C@@H]3C[C@@H]3[C@H]21 [Compound 51, (6aR,6bS,7aS,8aS)-4-hydroxy-6-methyl-3,5-dioxo-N-(2,4,6-trifluorobenzyl)-5,6,6a,6b,7,7a,8,8a-octahydro-3H-cyclopropa[4,5]cyclopenta[1,2-e]pyrido[1,2-a]pyrazine-2-carboxamide] | – | 33 | – | 6.71 | – | 0.00528
30 | CC(C)N1C(=O)c2c(O)c(=O)c(C(=O)NCc3c(F)cc(F)cc3F)cn2[C@H]2CCOC[C@H]21 [Compound 38] | 16.6 | 67 | 0.00283 | – | – | –
31 | CCN1C(=O)c2c(O)c(=O)c(C(=O)NCc3ccc(F)c(Cl)c3F)cn2[C@@H]2CCOC[C@H]21 [Compound 13] | 7.32 | 5 | 0.0107 | – | – | –
